From patent publication US20070107074A1, “Porcine Nuclear Transfer” (Garelag Pty Ltd., priority 1998, published 2007)

What was measured:
[1] = system: porcine morulae; assay: In vitro development of porcine morulae following NZ treatment; format: cell-based; conditions: 15 h
Protocol: In vitro culture of oocytes, embryos and nuclear transfer embryos was conducted in 25 μl droplets of Whitten's medium (Whitten W K, 1971, in G Raspe, ed Advances in the Biosciences, Pergamon Press: Oxford, pp 129-141) supplemented with 15 mg/ml bovine serum albumin (BSA) under paraffin oil in a plastic petrie dish under an atmosphere of 5% CO2, 5% O2 and 90% N2 in humidified air at […].

[2] = system: porcine blastomere nuclei; assay: Metaphase arrest induced in porcine blastomere nuclei following treatment with nocodazole; format: cell-based
Text: Preferably, karyoplasts may be synchronized at the G1 state using a DNA synthesis inhibitor and/or use of a microtubule inhibitor which, on following removal of the inhibitor(s), results in synchronization of the karyoplast at the G1 state, or by means other than DNA inhibition, excluding serum starvation, for example cdk kinase inhibitors such as Butyrolactone I (Motlik et al (1998) Theriogeneology 49: 461-469). Examples of DNA synthesis inhibitors include: aphidicolin, hydroxyurea, cytosine arabinoside, 5-fluorouracil, n-ethylmalemide and etoposide. Any microtubule inhibitor may be used in this invention including nocodazole, colchecine or colcemid. Alternatively, a microtubule stabilizer such as, for example, taxol may be used. Karyoplasts may, for example, be synchronized at G1 by the use of a microtubule inhibitor such as nocodazole (to give a population of nuclei at the metaphase) followed by treatment with a DNA synthesis inhibitor such as aphidicolin in which the nuclei progress to an arrest at the G1 state. […] Karyoplasts may be synchronized in the Go state by nutrient deprivation, such as incubation in a low serum containing medium, as is known in the art, or by chemical treatment. Donor karyoplasts (such as cells) may be incubated in a standard culture medium with a DNA synthesis inhibitor and/or microtubule inhibitor for a time sufficient to synchronize the cells at the G1 state. This can be readily observed by microscopic observations. DNA synthesis inhibitors and/or microtubule inhibitors may be used, for example, in an amount of from about 0.01 μg/ml to about 50 μg/ml, such as about 1-5 μg/ml culture medium. Microtubule inhibitors fix the cells at the M phase. After removal of microtubule inhibitor from the cell media, which can conveniently be done by washing the cells, cells pass to the G1 phase after about 30 minutes to 6 hours in a uniform manner such that a plurality of cells in the G1 phase can be conveniently prepared. A DNA synthesis inhibitor synchronises cells at the G1 phase. Removal of a DNA synthesis inhibitor from cell media allows the cell cycle to proceed. Similarly donor karyoplasts may be synchronized in the G0 state as described above.

## COC(=O)Nc1nc2ccc(C(=O)c3cccs3)cc2[nH]1 [NZ, nocodazole]
[1]; NZ 0.5 μg/ml, 3 repeats
  Development to blastocyst: 70%
[1]; NZ 0.5 μg/ml, 3 repeats, number of blastocysts/total
  Development to blastocyst: 14/20
[1]; NZ 1 μg/ml, 4 repeats
  Development to blastocyst: 57%
[1]; NZ 1 μg/ml, 4 repeats, number of blastocysts/total
  Development to blastocyst: 17/30
[2]; 4 h exposure, NZ 1 μg/ml
  Blastomeres at M: (24%)
[2]; 4 h exposure, NZ 1 μg/ml, number at M/total
  Blastomeres at M: 14/58
[2]; 7 h exposure, NZ 1 μg/ml
  Blastomeres at M: (41%)
[2]; 7 h exposure, NZ 1 μg/ml, number at M/total
  Blastomeres at M: 54/133
[2]; 15 h exposure, NZ 0.5 μg/ml
  Blastomeres at M: (76%)
[2]; 15 h exposure, NZ 0.5 μg/ml, number at M/total
  Blastomeres at M: 101/133
[2]; 15 h exposure, NZ 1 μg/ml
  Blastomeres at M: (96%)
[2]; 15 h exposure, NZ 1 μg/ml, number at M/total
  Blastomeres at M: 257/267
